Each structure is given as a SMILES string.

The subject of series [1] is Plutella xylostella (Diamond back moth) ryanodine receptor, containing the G4946E resistance mutation. Nature of the series: In vitro calcium fluorescence assay (Fluo-8 NW, FDSS) in human embryonic kidney cells expressing the ryanodine receptor. The class given is cell-based. As to conditions: table; EC50 (compound)/EC50 (cyantraniliprole); G4946E RyR in HEK cells. The method in brief: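 Fluo-8 NW-loaded cells, compounds at 10 rates, intracellular calcium fluorescence read on FDSS. EC50 from dose-response curves, normalized to in-assay cyantraniliprole as REC50 = EC50(compound)/EC50(cyantraniliprole).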

For `Cc1cc(Cl)cc(C(N)=O)c1NC(=O)c1cc(COCc2ccc(Cl)cc2)nn1-c1ncccc1Cl` [Compound P5, N-(2-carbamoyl-4-chloro-6-methyl-phenyl)-5-[(4-chlorophenyl)methoxymethyl]-2-(3-chloro-2-pyridyl)pyrazole-3-carboxamide], the melting point was 174 to 176 °C. In series [1], the “REC50 (Compound of the invention)” value is given as 0.31.

For `COc1cc(C(=O)Nc2c(C)cc(Br)cc2C(N)=O)n(-c2ncccc2Cl)n1` [Compound P45, N-(4-bromo-2-carbamoyl-6-methyl-phenyl)-2-(3-chloro-2-pyridyl)-5-methoxy-pyrazole-3-carboxamide], the melting point was in the range of 210 to 215 °C. Also, in series [1], the “REC50 (Compound of the invention)” value was found to be 0.24. For `COc1cc(C(=O)Nc2c(Cl)cc(Br)cc2C(N)=O)n(-c2ncccc2Cl)n1` [Compound P47, N-(4-bromo-2-carbamoyl-6-chloro-phenyl)-2-(3-chloro-2-pyridyl)-5-methoxy-pyrazole-3-carboxamide], the melting point lay within 160 to 165 °C. Besides, the “REC50 (Compound of the invention)” value in series [1] amounted to 0.61. The molecule `COc1cc(C(=O)Nc2c(Cl)cc(Cl)cc2C(N)=O)n(-c2ncccc2Cl)n1` [Compound P59, N-(2-carbamoyl-4,6-dichloro-phenyl)-2-(3-chloro-2-pyridyl)-5-methoxy-pyrazole-3-carboxamide] returned a melting point of 155 to 160 °C. Also, the “REC50 (Compound of the invention)” value in series [1] was found to be 0.62. `Cc1cc(Cl)cc(C(N)=O)c1NC(=O)c1cc(C2(C#N)CC2)nn1-c1ncccc1Cl` [Compound P72, N-(2-carbamoyl-4-chloro-6-methyl-phenyl)-2-(3-chloro-2-pyridyl)-5-(1-cyanocyclopropyl)pyrazole-3-carboxamide] came in with a melting point of 225 to 230 °C. `CCc1cc(C(=O)Nc2c(C)cc(Cl)cc2C(N)=O)n(-c2ncccc2Cl)n1` [Compound P75, N-(2-carbamoyl-4-chloro-6-methyl-phenyl)-2-(3-chloro-2-pyridyl)-5-ethyl-pyrazole-3-carboxamide]: the melting point lay within 245 to 250 °C. The “REC50 (Compound of the invention)” value in series [1] turned out to be 0.69. In the case of `CSCc1cc(C(=O)Nc2c(C)cc(Cl)cc2C(N)=O)n(-c2ncccc2Cl)n1` [Compound P79, N-(2-carbamoyl-4-chloro-6-methyl-phenyl)-2-(3-chloro-2-pyridyl)-5-(methylsulfanylmethyl)pyrazole-3-carboxamide], the melting point was in the range of 175 to 180 °C.

In general, melting point refers to the temperature, or range, at which the solid turns liquid.

Source of the values: patent US20240308988A1, “Method For Controlling Diamide Resistant Pests and Compounds Therefor” (priority 2021, published 2024).
